Columns and labels:
Assay type in all cases: cell-based
Bacillus thuringiensis = experiment: Adaptation stages: mortality of Bacillus thuringiensis on growth media with thiodicarb or bifenthrin; settings: for Resistant to: FINAL: B. Thuringiensis at the end of the adaptation process
Procedure: (§1) Bacteria strains, nitrifiers, phosphorus solubilizers and antagonists for pathogens: • a) Arthrobacter globiformis • b) Bacillus megaterium • c) Bacillus brevis • d) Bacillus thuringiensis Preparation for Stage Development • 1. Glass material is sterilized in an autoclave. • 2. The required amount of growth media is prepared, DFA Agar, Malt Agar (Corn Agar) and (PDA) to obtain viable colonies. • 3. Lethal dose (LD) applied to a hectare is established, for thiodicarb as well as bifenthrin. 10 Petri dishes are prepared with 0.1 LD of thiodicarb of bifenthrin. Dishes are incubated at 25° C. for 72 hours with cold light. Methodology • a. Physical and chemical variables obtained in the research are maintained using traces. Petri dishes are placed inside the laminar flow chamber along with the diluted samples, to seed microorganisms in the dishes, a one ml sample of the strain is taken with an automated pipette, 10^−1 and 10^−2 solutions are performed and each solution is homogenized. • b. Having the petri dishes with the sterile and cold growth media, it is homogenized with 6 right to left movements, 6 clockwise movements, 6 counterclockwise movements and 6 front to back movements over a flat horizontal surface until the inoculum is completely integrated into the media, stand until it solidifies and each dish is covered with parafilm to avoid contamination during incubation. • c. The adapted consortium conditions are kept for the starting media (habitat), humidity, pH, temperature, chemical traceability, lighting and airing, Gram colorations and malachite green for the differentiation and observation of cellular structures. • d. Dishes with thiodicarb and Bifenthrin are placed inside the incubator at 25° C. for 72 hours with a cold light lamp. • e. Inoculated dishes are incubated for 72 hours and the bacteria growth will be recorded, the product concentration impact is determined over the plate growth (12 hours of incubation). • f. The residual impact of the product is reviewed after 7 days in the malt agar and PDA agar media. • g. If there is no growth over 10%, the process is repeated until a mortality under 90% is obtained. • h. The colony diameter is determined using a graduated ruler, data is recorded subtracting the diameter of the seeded dish, from which the effect over the mycelial growth will be determined compared to the control (not poisoned MA, denominated as percentage of inhibition of radial growth (PIRG %). • i. Progress is recorded daily and after 7 days analysis of an acceptable coverage is performed, if not, the procedure is repeated as many times as required. • j. From the 10 Petri dishes for each microorganism, the one with the lowest mortality is the one that will continue with the following study. • k. The study is performed again using this percentage until coverage increases and so on, the addition of thiodicarb and bifenthrin is alternated with the LD in intervals of 0.1 LD; all these experiments have been designed with the experimental strains and a control. • l. With the data obtained from the bacterial growth, the percentage of inhibition of gradual growth is obtained, the data is transformed for its analysis with the expression 2 arc sin. A two-way classification analysis of variance is applied and later the Turkey test is performed using a 5% probability.
(§2) Characteristics for this procedure were recorded during all stages through the following indicators: • a. Growth speed • b. Percentage of inhibition measured in Number of CFU/mm • c. Percentage of poison resistance
Beginning with habitat conditions obtained in the adaptation to organophosphate, organochlorine compounds and mercury from the microorganisms at the E-38 pH: 7.2, Humidity: 52%, thermoresistant (74° C.), […] and facultative anaerobic. These conditions are the starting point to adapt the strain to thiodicarb and bifenthrin. During all stages a cold light lamp will be used to adapt the microorganism to sunlight. […]

Arthrobacter globiformis = experiment: Adaptation stages: mortality of Arthrobacter globiformis on growth media with thiodicarb or bifenthrin; settings: for initial mortality: summary of the adaptation tests with increasing concentrations of thiodicarb and bifenthrin
Procedure: as §1, §2
Habitat conditions are maintained, conditions obtained during the adaptation to organophosphorus and organochlorinated compounds and mercury of the microorganism, pH: 7.0, humidity: 35%, Temperature: Thermoresistant. These conditions are the starting point to adapt the strain to the new pollutants: thiodicarb (carbamate) and bifenthrin (pyrethroid). […]

Bacillus brevis = experiment: Adaptation stages: mortality of Bacillus brevis on growth media with thiodicarb or bifenthrin; settings: for Resistant to: FINAL: Bacillus brevis at the end of the adaptation process
Procedure: as §1, §2
Beginning with habitat conditions obtained in the adaptation to organophosphate, organochlorine compounds and mercury from the microorganisms at the E-38 pH: 7.2, Humidity: 36%, thermoresistant and facultative anaerobic. These conditions are the starting point to adapt the strain to thiodicarb and bifenthrin.
To adapt this microorganism, 51 stages were performed, beginning the process with the conventional growth media. […]

Bacillus subtillis = experiment: Adaptation stages: mortality of Bacillus subtillis on growth media with thiodicarb or bifenthrin; settings: for Resistant to: FINAL: Bacillus subtillis at the end of the adaptation process
[1] = stages E-5 and E-6, 0.1 LD (0.00000006 gr)
[2] = stages E-7 and E-8, 0.2 LD (0.00000012 gr)
[3] = stages E-13 and E-14, 0.3 LD (0.00000018 gr)
[4] = stages E-21 and E-22, 0.5 LD (0.00000030 gr)
[5] = stages E-29 and E-30, 0.7 LD (0.00000036 gr)
[6] = stages E-37 and E-38, 0.9 LD (0.00000042 gr)
[7] = stages E-45 and E-46, 1.1 LD (0.00000054 gr)
[8] = stages E-3 and E-4, 0.2 LD (0.000035 gr)
[9] = stages E-9 and E-10, 0.3 LD (0.000053 gr)
[10] = stages E-11 and E-12, 0.4 LD (0.000070 gr)
[11] = stages E-15 and E-16, 0.4 LD (0.00000024 gr)
[12] = stages E-17 and E-18, 0.5 LD (0.000087 gr)
[13] = stages E-19 and E-20, 0.6 LD (0.00011 gr)
[14] = stages E-23 and E-24, 0.6 LD (0.00000036 gr)
[15] = stages E-25 and E-26, 0.7 LD (0.00012 gr)
[16] = stages E-27 and E-28, 0.8 LD (0.00014 gr)
[17] = stages E-31 and E-32, 0.8 LD (0.00000042 gr)
[18] = stages E-33 and E-34, 0.9 LD (0.00016 gr)
[19] = stages E-35 and E-36, 1 LD (0.00018 gr)
[20] = stages E-39 and E-40, 1 LD (0.00000048 gr)
[21] = stages E-41 and E-42, 1.1 LD (0.00020 gr)
[22] = stages E-43 and E-44, 1.2 LD (0.00022 gr), both stages
[23] = stages E-47 and E-48, 1.2 LD (0.00000060 gr)
[24] = stage E-1, 0.1 LD (0.0000175 gr), until day 68 of incubation
[25] = stage E-2, 0.1 LD (0.0000175 gr)

Compound: Cc1c(COC(=O)[C@@H]2[C@H](/C=C(\Cl)C(F)(F)F)C2(C)C)cccc1-c1ccccc1 (racemic) [bifenthrin, 2-methyl biphenyl-3-ilmetil(2)-(1RS,3RS)-3-(2-chlorine 3,3,3-trifluoropropene)-2,2-dimethyl-cyclo-propane-carboxylate]
- Resistant to: FINAL (Bacillus thuringiensis): 1.2 LD of
- mortality (Bacillus thuringiensis; [1]): 68 to 65%
- mortality (Bacillus thuringiensis; [2]): 64 to 63%
- mortality (Bacillus thuringiensis; [3]): 57 to 55%
- mortality (Bacillus thuringiensis; [4]): 50 to 45%
- mortality (Bacillus thuringiensis; [5]): 36 to 33%
- mortality (Bacillus thuringiensis; [6]): 30 to 28%
- mortality (Bacillus thuringiensis; [7]): 15 to 12%
- mortality (Arthrobacter globiformis; [1]): 84%
- mortality (Arthrobacter globiformis; [2]): 75%
- mortality (Arthrobacter globiformis; [3]): 70%
- mortality (Arthrobacter globiformis; [4]): 56%
- mortality (Arthrobacter globiformis; [5]): 40%
- mortality (Arthrobacter globiformis; [6]): 25%
- initial mortality (Arthrobacter globiformis): ~82%
- Resistant to: FINAL (Bacillus brevis): 1.3 LD of
- mortality (Bacillus brevis; [1]): 73%
- mortality (Bacillus brevis; [2]): 70 to 68%
- mortality (Bacillus brevis; [3]): 67%
- mortality (Bacillus brevis; [4]): 55%
- mortality (Bacillus brevis; [5]): 44%
- mortality (Bacillus brevis; [6]): 26%
- mortality (Bacillus brevis; [7]): 20%
- Resistant to: FINAL (Bacillus subtillis): 1 LD of
- mortality (Bacillus subtillis; [1]): 72 to 71%
- mortality (Bacillus subtillis; [2]): 70 to 68%
- mortality (Bacillus subtillis; [3]): 65%
- mortality (Bacillus subtillis; [4]): 47 to 45%
- mortality (Bacillus subtillis; [5]): 25 to 23%
- mortality (Bacillus subtillis; [6]): 8 to 6%

Compound: CS/C(C)=N\OC(=O)N(C)SN(C)C(=O)O/N=C(\C)SC [thiodicarb]
- Resistant to: FINAL (Bacillus thuringiensis): 1.2 LD of
- mortality (Bacillus thuringiensis; stages E-1 and E-2, 0.1 LD (0.0000175 gr), until day 45 of incubation): 72 to 70%
- mortality (Bacillus thuringiensis; [8]): 70 to 68%
- mortality (Bacillus thuringiensis; [9]): 65 to 61%
- mortality (Bacillus thuringiensis; [10]): 57 to 55%
- mortality (Bacillus thuringiensis; [11]): 52 to 50%
- mortality (Bacillus thuringiensis; [12]): 52 to 50%
- mortality (Bacillus thuringiensis; [13]): 50 to 45%
- mortality (Bacillus thuringiensis; [14]): 44 to 42%
- mortality (Bacillus thuringiensis; [15]): 44 to 40%
- mortality (Bacillus thuringiensis; [16]): 36 to 35%
- mortality (Bacillus thuringiensis; [17]): 30 to 28%
- mortality (Bacillus thuringiensis; [18]): 30%
- mortality (Bacillus thuringiensis; [19]): 25%
- mortality (Bacillus thuringiensis; [20]): 18 to 17%
- mortality (Bacillus thuringiensis; [21]): 18 to 17%
- mortality (Bacillus thuringiensis; [22]): 14%
- mortality (Bacillus thuringiensis; [23]): 10 to 7%
- mortality (Arthrobacter globiformis; stages E-1 and E-2, 0.1 LD (0.0000175 gr) in growth media, until incubation day 45): 86%
- mortality (Arthrobacter globiformis; [8]): 66 to 80%
- mortality (Arthrobacter globiformis; [9]): 74%
- mortality (Arthrobacter globiformis; [10]): 71%
- mortality (Arthrobacter globiformis; [11]): 62%
- mortality (Arthrobacter globiformis; [12]): 63%
- mortality (Arthrobacter globiformis; [13]): 58%
- mortality (Arthrobacter globiformis; [14]): 48%
- mortality (Arthrobacter globiformis; [15]): 48%
- mortality (Arthrobacter globiformis; [16]): 40%
- mortality (Arthrobacter globiformis; [17]): 36%
- mortality (Arthrobacter globiformis; [18]): 32%
- mortality (Arthrobacter globiformis; [19]): 25%
- mortality (Arthrobacter globiformis; [20]): 18%
- initial mortality (Arthrobacter globiformis): ~82%
- Resistant to: FINAL (Bacillus brevis): 1.3 LD of
- mortality (Bacillus brevis; [24]): 82%
- mortality (Bacillus brevis; [25]): 78%
- mortality (Bacillus brevis; [8]): 72%
- mortality (Bacillus brevis; [9]): 68%
- mortality (Bacillus brevis; [10]): 67%
- mortality (Bacillus brevis; [11]): 60%
- mortality (Bacillus brevis; [12]): 59 to 54%
- mortality (Bacillus brevis; [13]): 55%
- mortality (Bacillus brevis; [14]): 51%
- mortality (Bacillus brevis; [15]): 50%
- mortality (Bacillus brevis; [16]): 46%
- mortality (Bacillus brevis; [17]): 42%
- mortality (Bacillus brevis; [18]): 38%
- mortality (Bacillus brevis; [19]): 28%
- mortality (Bacillus brevis; [20]): 20%
- mortality (Bacillus brevis; [21]): 28%
- mortality (Bacillus brevis; [22]): 22%
- mortality (Bacillus brevis; [23]): 12%
- mortality (Bacillus brevis; stages E-49 and E-50, 1.3 LD (0.00024 gr)): 10%
- Resistant to: FINAL (Bacillus subtillis): 1 LD of
- mortality (Bacillus subtillis; [24]): 82%
- mortality (Bacillus subtillis; [25]): 80%
- mortality (Bacillus subtillis; [8]): 75 to 72%
- mortality (Bacillus subtillis; [9]): 66 to 63%
- mortality (Bacillus subtillis; [10]): 64 to 62%
- mortality (Bacillus subtillis; [11]): 64 to 60%
- mortality (Bacillus subtillis; [12]): 59 to 54%
- mortality (Bacillus subtillis; [13]): 52 to 50%
- mortality (Bacillus subtillis; [14]): 40 to 35%
- mortality (Bacillus subtillis; [15]): 35 to 30%
- mortality (Bacillus subtillis; [16]): 28 to 25%
- mortality (Bacillus subtillis; [17]): 20 to 18%
- mortality (Bacillus subtillis; [18]): 18 to 15%
- mortality (Bacillus subtillis; [19]): 12 to 9%
- mortality (Bacillus subtillis; [20]): 5%
